Data published in ChEMBL document CHEMBL1149901, “Complex sesquiterpenoids with tyrosinase inhibitory activity from the leaves of Chloranthus tianmushanensis” (J Nat Prod, 2008).
Activity calls are given as the source filed them. No cut-off for these calls is given here.

Target: T1, Tyrosinase (Agaricus bisporus) (UniProt O42713)
T1 sequence (whole entry): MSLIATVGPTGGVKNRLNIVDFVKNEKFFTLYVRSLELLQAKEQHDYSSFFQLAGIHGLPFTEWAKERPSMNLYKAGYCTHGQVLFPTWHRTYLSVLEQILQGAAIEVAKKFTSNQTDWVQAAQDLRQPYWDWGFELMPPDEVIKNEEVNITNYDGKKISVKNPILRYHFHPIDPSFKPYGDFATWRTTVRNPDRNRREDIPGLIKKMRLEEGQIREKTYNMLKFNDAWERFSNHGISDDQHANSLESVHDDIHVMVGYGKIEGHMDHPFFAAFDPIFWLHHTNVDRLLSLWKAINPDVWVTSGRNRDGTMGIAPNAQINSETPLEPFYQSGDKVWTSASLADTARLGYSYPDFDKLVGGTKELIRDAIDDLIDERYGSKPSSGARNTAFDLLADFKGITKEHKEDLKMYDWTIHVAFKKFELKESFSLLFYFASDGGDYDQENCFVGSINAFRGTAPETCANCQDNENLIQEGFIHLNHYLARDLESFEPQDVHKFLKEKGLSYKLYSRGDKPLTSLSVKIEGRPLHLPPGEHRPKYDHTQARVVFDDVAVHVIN
Description: Inhibition of Mushroom tyrosinase

Structure (SMILES)	Activity
C/C1=C\Cc2c(C)coc2C/C(C)=C/CC1	inactive
C=C1[C@H]2C[C@H]2[C@]2(C)C=C3OC(=O)C(C)=C3C[C@@H]12	inactive
C=C1CCC[C@]2(C)C[C@]3(O)OC(=O)C(C)=C3C[C@@H]12	inactive
CC1=C2C/C=C(\C)CC/C=C(\C)C[C@@H]2OC1=O	inactive

Target: T2, Tyrosinase (Agaricus bisporus, UniProt O42713)
T2 sequence (O42713 whole entry): T1 sequence (whole entry)
Description: Inhibition of Mushroom tyrosinase

Structure (SMILES)	IC50 [µM]
CC1=C2C3=C4[C@](C)([C@@H]5C[C@@H]5[C@@]4(O)C[C@@H]4[C@]35OC(=O)C3=C5C[C@H]5[C@](O)(COC(=O)/C(C)=C/COC(=O)CCC(=O)OC3)[C@H]3C[C@H]3[C@]45C)[C@@H](O)[C@]2(O)OC1=O [TIANMUSHANOL]	358
CO[C@@]12OC(=O)C(C)=C1C1=C3[C@](C)([C@@H]4C[C@@H]4[C@@]3(O)C[C@@H]3[C@]14OC(=O)C1=C4C[C@H]4[C@](O)(COC(=O)/C(C)=C/COC(=O)CCC(=O)OC1)[C@H]1C[C@H]1[C@]34C)[C@H]2O	312
